Data from the NIST ThermoML archive (doi:10.1021/je200836x).

Assay: mn = molality of the nth substance listed, in mol/kg
Details: 101 kPa, Liquid; for molar conductivity: Alternating current cell with electrodes; for mass density: Vibrating tube method

O=C([O-])c1ccccc1.[Na+] [sodium benzoate] + O
Details | mass density, 298.15 K [kg/m3] | molar conductivity, 278.15 K [S·m2/mol] | molar conductivity, 283.15 K [S·m2/mol] | molar conductivity, 288.15 K [S·m2/mol] | molar conductivity, 293.15 K [S·m2/mol] | molar conductivity, 298.15 K [S·m2/mol] | molar conductivity, 303.15 K [S·m2/mol] | molar conductivity, 308.15 K [S·m2/mol] | molar conductivity, 313.15 K [S·m2/mol]
m1 = 0.0002136 | – | 0.004828 | 0.005584 | 0.006384 | 0.007233 | 0.00812 | 0.009043 | 0.01 | 0.01098
m1 = 0.0004649 | – | 0.00479 | 0.005542 | 0.006339 | 0.007182 | 0.008063 | 0.008982 | 0.009936 | 0.01091
m1 = 0.0007334 | – | 0.004765 | 0.005514 | 0.006308 | 0.007149 | 0.008027 | 0.00894 | 0.009881 | 0.01085
m1 = 0.0009986 | – | 0.004746 | 0.005493 | 0.006283 | 0.007122 | 0.007986 | 0.008891 | 0.009829 | 0.0108
m1 = 0.001299 | – | 0.00473 | 0.005474 | 0.006253 | 0.007089 | 0.007958 | 0.00886 | 0.009801 | 0.01078
m1 = 0.0016 | – | 0.004708 | 0.005448 | 0.006234 | 0.007064 | 0.007933 | 0.008837 | 0.00977 | 0.01073
m1 = 0.001996 | – | 0.00469 | 0.005428 | 0.006211 | 0.007037 | 0.007901 | 0.008801 | 0.009733 | 0.01071
m1 = 0.002488 | – | 0.004671 | 0.005407 | 0.00619 | 0.00701 | 0.007872 | 0.00877 | 0.009663 | 0.01063
m1 = 0.003107 | – | 0.004649 | 0.00538 | 0.006164 | 0.006978 | 0.007811 | 0.008706 | 0.009625 | 0.01059
m1 = 0.003832 | – | 0.004634 | 0.005362 | 0.006129 | 0.006945 | 0.007796 | 0.008683 | 0.009598 | 0.01055
m1 = 0.00495 | 997.26 | 0.004604 | 0.00532 | 0.006084 | 0.006895 | 0.007742 | 0.008623 | 0.009539 | 0.01048
m1 = 0.08466 | 1001.94 | – | – | – | – | – | – | – | –
